# Measured values published in patent publication US20170119806A1, “[…] LACTONE DERIVATIVES AND METHODS OF MAKING AND USING THEREOF” (OHIO STATE INNOVATION FOUNDATION, priority 2014, published 2017).
# Entries after “also recorded” stand apart in the source; their conditions may differ.
# Experiments:
# [1] = system: CCD-112CoN normal human colon cells; assay: Cytotoxicity against CCD-112CoN cells
# Excerpt: Following a previous procedure (Still P C et al. J. Nat. Prod. 2013, 76, 243-249) and the method for screening cytotoxicity towards HT-29 cells mentioned above, the cytotoxicity of the samples was screened against CCD-112CoN normal human colon cells.
# TLR1 or TLR6 = assay: TLR activation assessment (NF-κB luciferase reporter in HEK293T); type: cell-based, human; details: various concentrations of PL-C, 24 h
# [2] = system: HT-29 human colon cancer cells; assay: Cytotoxicity against HT-29 cells; details: read-out: IC50 values toward the HT-29 cells; Table 6; triplicate, two independent experiments
# Method: The cytotoxicity of the test compounds was screened against HT-29 cells by a previously reported procedure (Ren Y et al. J. Nat. Prod 2011, 74, 1117-1125). Paclitaxel and etoposide were used as positive controls.
# All arylnaphthalene lignans isolated from P. poilanet in the present study and their semi-synthetic analogues were evaluated for their cytotoxicity against HT-29 human colon cancer cells, using paclitaxel as the positive control (Table 6) (Ren Y et al. J. Nat. Prod 2011, 74, 1117-1125).
# human primary NK cells = assay: IFN-γ production by NK cells (intracellular flow cytometry, ELISA); type: cell-based; details: 10 μM PL-C, 18 h
# Method: (A) Chemical structure of PL-C (phyllanthusmin C, 4), (9) Healthy donor PBMCs (left panel) or enriched NK cells (right panel) were treated with DMSO vehicle control or 10 μM PL-C for 18 h in the presence of […] (10 ng/mL) or IL-15 (100 ng/mL). The cells were harvested and analyzed by intracellular flow cytometry to determine the frequency of IFN-γ^+ cells in CD56^+CD3^− NK cells (n=8 for PBMC and n=5 for enriched NK). (C) Highly purified (≧99.5%) human primary NK cells were treated with 10 μM PL-C for 18 h to determine the levels of IFN-γ secretion by ELISA. IFN-γ secretion from treatment with PL-C alone (left panel) or in combination with IL-12 (10 ng/mL, middle panel) or IL-15 (100 ng/mL, right panel) is shown. (D) Cells were treated as described in (C) and harvested at 12 h, IFNG mRNA expression was assessed by real-time RT-PCR, and the relative IFNG mRNA expression of each treatment was normalized to untreated vehicle control in the same donor. Data are shown as mean±SEM (n=6 in each treatment; error bars represent SEM). *p<0.05, **p<0.01, which denote statistical comparison between the two marked treatment groups (B-D). (E) Highly purified (≧99,5%) primary human NK cells were treated with 10 μM. PL-C in combination with various concentrations of IL-12 (10, 1, and 0.1 ng/mL) or IL-15 (100, 10, and 1 ng/mL) for 24 h to determine the levels of IFN-γ secretion. Representative data from one of three donors with the similar data are shown. *p<0.05, **p<0.01, which denote statistical comparison between the two marked treatment groups and are calculated from data of all tested donors. Error bars represent SD. […]
# Isolation of PBMCs and NK cells. […] The purity of enriched NK cells was ≧80% assessed by flow cytometric analysis after staining with CD56-allophycocyanin and CD3-FITC Abs (BD Bio-sciences, San Jose, Calif.). […] The purity of magnetic bead-purified NK cells was ≧99.5%, as determined by the aforementioned flow cytometric analysis. […]
smiles,measurement,setting,value
"COc1cc2c(OC3OCC(O)C(O)C3O)c3c(c(-c4ccc5c(c4)OCO5)c2cc1OC)C(=O)OC3 (stereo not drawn) [Compound 4, Phyllanthusmin C]",cytotoxicity toward CCD-112CoN human normal colon cells (in words),[1],non-cytotoxic
same,IC50,"[1]; read-out: IC50 values toward the CCD-112 CoN cells, Table 6",> 100 µM
same,NF-κB luciferase reporter activity in TLR1- or TLR6-transfected 293T cells,TLR1 or TLR6,induce luciferase reporter activity in a dose-dependent fashion
same,IC50,[2],3.2 µM
same,IFN-γ production/secretion by human NK cells,"human primary NK cells; alone or with IL-12 (10 ng/mL) or IL-15 (100 ng/mL), listed as PL-C",enhanced IFN-γ production; also recorded: can induce NK cell IFN-γ production; also recorded: induced NK cell secretion of IFN-γ even in the absence IL-12 or IL-15; also recorded: enhanced NK cell IFN-γ secretion in the presence of IL-12 or IL-15 stimulation; also recorded: enhanced by PL-C
same,IFN-γ production induced by Pam3CSK4 or FSL-1 in NK cells,"human primary NK cells; ligands 1 μg/mL, IL-12 (10 ng/mL)",enhanced IFN-γ production
